In PMC8395125, “Conjugation with Phospholipids as a Modification Increasing Anticancer Activity of Phenolic Acids in Metastatic Melanoma—In Vitro and In Silico Studies” (International Journal of Molecular Sciences, 2021):

Key:
451-Lu cells [1] = test: Annexin-V/PI apoptosis assay, 451-Lu; format: cell-based, human; conditions: 100 µM, 72 h
Method: (§1) The studies of cell cycle, apoptosis and intracellular level of ROS were performed using the flow cytometry method. For the apoptosis assay, the cells were harvested and centrifuged (1500 rpm, 3 min). The apoptosis was measured using an Annexin-V apoptosis assay (BioLegend, San Diego, CA, USA). After supernatant removal, the cells were washed with PBS and centrifuged again. The pellets of cells were suspended in 50 μL of cold Annexin-V binding buffer and stained with FITC-labeled Annexin-V for 30 min at 37 °C in the dark. The Annexin-V binding buffer and propidium iodide (PI) solution (100 μg/mL; Sigma-Aldrich, Poznan, Poland) were then added and the samples were stored on ice till they were measured.
(§2) Cytometric analyses were performed immediately using an Aria III flow cytometer (Becton Dickinson, Franklin Lakes, NJ, USA) with FITC configuration (488 nm excitation; emission, LP mirror 503, BP filter 530/30) or with PE configuration (547 nm excitation; emission, 585 nm) and at least 10,000 cells were counted.

[2] = test system: 451-Lu metastatic melanoma cells; test: MTT cell viability assay, 451-Lu; format: cell-based, human; conditions: 50 to 400 μM, 72 h; for toxicity / cell growth inhibition: 451-Lu; for IC50: Homo sapiens, 451Lu, MTT, mean ± SD
From the text: (§3) Three malignant melanoma cell lines (Me45, 1205-Lu and 451-Lu; obtained from the collection of the Centre of Oncology, Gliwice, Poland), neonatal human dermal fibroblast (NHDF; Lonza, Basel, Switzerland) and human colorectal adenocarcinoma cells (Caco-2; ATCC, Manassas, VA, USA) were used in the studies. The human malignant melanoma (Me45) cell line (derived from a lymph node metastasis of skin melanoma) was established in 1997 at the Radiobiology Department of the Centre of Oncology in Gliwice. 1205-Lu and 451-Lu cell lines were derived from human melanoma metastases to lungs of immunodeficient mice. The cells were cultivated in the medium DMEM-F12 (PAA, Warsaw, Poland) supplemented with 10% (for Me45, 1205-Lu and 451-Lu and NHDF) or 20% (Caco-2) of fetal bovine serum (FBS, Eurx, Gdansk, Poland). In addition, medium for Caco-2 cells contained Non-essential Amino Acid Solution (1×) (Sigma-Aldrich, Poznan, Poland). All cell lines were grown in the presence of 1% of antibiotics (10,000 μg/mL streptomycin and 10,000 units/mL penicillin; Sigma-Aldrich, Poznan, Poland), at 37 °C in humidified atmosphere with 5% CO2 under standard conditions. All experimental procedures were carried out in log-phase of cell growth. During some experiments melanoma cells were irradiated with X-rays at the dose of 2 Gy at the 24th hour of the incubation. Ionizing radiation was applied using a laboratory X-Cell 140 irradiator (Kubtec, Bridgeport, CT, USA).
(§4) Cells (Me45, 1205-Lu, 451-Lu and NHDF) were seeded on 96-well plates (20,000 cells/mL) 24 h before the experiment. One day later, fresh media containing tested compounds were added. The appropriate control, containing ethanol:DMSO (v/v 1:1) in fresh medium, was also prepared. The plates were incubated for a given time (72 h for Me45, 1205-Lu, 451-Lu and NHDF; 2 h for Caco-2) at 37 °C in humidified atmosphere with 5% CO2. After incubation, the medium was removed and cells were washed with physiological saline (PBS; PAA, Warsaw, Poland). In the next step, the cells were incubated with MTT (3-[4,5-dimethylthiazol-2-yl]-2,5-diphenyltetrazolium bromide, Sigma-Aldrich, Poznan, Poland) (solution of 0.5 mg/mL in RPMI 1640 without phenol red) for 2 h. Then, the MTT solution was removed and the formazan crystals were dissolved in the mixture isopropanol:HCl (v/v 1:0.04; both purchased from Sigma-Aldrich, Poznan, Poland). The absorbance of the obtained product was read at 570 nm using a microplate reader (Epoch; BioTek, Winooski, VT, USA). Survival rate was expressed as the percentage of cell survival and calculated from the ratio (A570 of treated cells/A570 of control cells) × 100%. The experiments were repeated three times.

[3] = test system: normal skin fibroblasts NHDF; test: MTT cell viability assay, NHDF; format: cell-based, human; conditions: 50 to 400 μM, 72 h; for IC50: Homo sapiens, MTT, mean ± SD
From the text: as §3, §4

Me45 cells [4] = test: Annexin-V/PI apoptosis assay, Me45; format: cell-based, human; conditions: Me45, 100 µM, 72 h
Method: as §1, §2

[5] = test system: 1205-Lu metastatic melanoma cells; test: MTT cell viability assay, 1205-Lu; format: cell-based, human; conditions: 50 to 400 μM, 72 h; for toxicity / cell growth inhibition: 1205-Lu; for IC50: Homo sapiens, 1205Lu, MTT, mean ± SD
From the text: as §3, §4

[6] = test system: Me45 metastatic melanoma cells; test: MTT cell viability assay, Me45; format: cell-based, human; conditions: 72 h; for toxicity / cell growth inhibition: Me45, 50 to 400 μM; for IC50: Homo sapiens, MTT, 50 to 400 μM, mean ± SD
From the text: as §3, §4

1205-Lu cells [7] = test: Annexin-V/PI apoptosis assay, 1205-Lu; format: cell-based, human; conditions: 100 µM; for induction of apoptosis / fraction of necrotic cells: 72 h; for fraction of cells in the early stage of apoptosis: 48 h of incubation, without irradiation
Method: as §1, §2

Me45 melanoma cells = test: Intracellular ROS formation (DCFH-DA, flow cytometry), Me45; format: cell-based, human; conditions: Me45, 72 h, DCF fluorescence
Method: (§5) The experiments on ROS content were performed after 72 h of incubation with the given compounds. The cells were harvested and centrifuged (1500 rpm, 3 min), washed with PBS and centrifuged again. The pellet was resuspended in culture medium and a cell-permeable non-fluorescent probe 2′,7′-dichlorofluorescin diacetate (DCFH-DA, Sigma-Aldrich, Poznan, Poland) at a final concentration of 30 µM was added. The samples were incubated in darkness for 30 min at 37 °C, then stored on ice till they were measured. DCFH-DA is hydrolyzed by cellular esterases into its polar form DCFH. Due to the intracellular ROS and other peroxides, DCFH undergoes oxidation and turns into highly fluorescent compond 2′,7′-dichlorofluorescein (DCF).
as §2

1205-Lu melanoma cells = test: Intracellular ROS formation (DCFH-DA, flow cytometry), 1205-Lu; format: cell-based, human; conditions: 72 h, DCF fluorescence
Method: as §5, §2

451-Lu cells [8] = test: Cell cycle analysis (PI, flow cytometry), 451-Lu; format: cell-based, human; conditions: 100 µM, 72 h, vs untreated control
Method: (§6) For cell cycle analysis, harvested cells were centrifuged (1500 rpm, 3 min). After supernatant removal, cells were fixed with a hypotonic buffer, containing PI at 100 µg/mL in PBS, 5 mg/l of citric acid, 1:9 Triton-X solution, 100 µg/mL of RNase in PBS (Sigma-Aldrich, Poznan, Poland). Probes were incubated for 20 min at room temperature in the dark, then stored on ice till they were measured.
as §2

451-Lu melanoma cells = test: Intracellular ROS formation (DCFH-DA, flow cytometry), 451-Lu; format: cell-based, human; conditions: 72 h, DCF fluorescence
Method: as §5, §2

Me45 cells [9] = test: Cell cycle analysis (PI, flow cytometry), Me45; format: cell-based, human; conditions: Me45, 100 µM, 72 h, vs untreated control
Method: as §6, §2

colon cancer cells = test system: colon cancer cells; set-up: method as in PMID 30104549; conditions: cited from earlier work
1205-Lu cells [10] = test: Pro-apoptotic activity in combination with ionizing radiation (2 Gy), 1205-Lu; format: cell-based, human; conditions: 100 µM, 48 h, X-rays 2 Gy at the 24th hour
Method: In the next step, pilot experiments on the pro-apoptotic activity of phenolic acid-PC conjugates in combination with ionizing radiation (IR) were performed. […] The time of incubation with a given compound was reduced to 48 h. X-rays at the dose of 2 Gy were applied at the 24th hour of incubation.
Three malignant melanoma cell lines (Me45, 1205-Lu and 451-Lu; obtained from the collection of the Centre of Oncology, Gliwice, Poland), neonatal human dermal fibroblast (NHDF; Lonza, Basel, Switzerland) and human colorectal adenocarcinoma cells (Caco-2; ATCC, Manassas, VA, USA) were used in the studies. […]
The studies of cell cycle, apoptosis and intracellular level of ROS were performed using the flow cytometry method. […] The apoptosis was measured using an Annexin-V apoptosis assay (BioLegend, San Diego, CA, USA). […] The Annexin-V binding buffer and propidium iodide (PI) solution (100 μg/mL; Sigma-Aldrich, Poznan, Poland) were then added and the samples were stored on ice till they were measured.
as §2

IC50 [2] [µM]	IC50 [5] [µM]	IC50 [6] [µM]	SMILES	induction of apoptosis (451-Lu cells [1])	induction of apoptosis (Me45 cells [4])	induction of apoptosis (1205-Lu cells [7])	cell cycle phase distribution (451-Lu cells [8])	IC50 [3] [µM]	cell cycle phase distribution (Me45 cells [9])	also measured
			COc1ccc(C(=O)O)cc1 [1a, 4-methoxybenzoic acid, reference compound]	no ability to induce apoptosis	no ability to induce apoptosis	no ability to induce apoptosis				toxicity / cell growth inhibition [2]: non-toxic; toxicity / cell growth inhibition [3]: non-toxic; toxicity / cell growth inhibition [5]: non-toxic; toxicity / cell growth inhibition [6]: non-toxic
			COc1ccc(C(=O)O)cc1OC [1b, 3,4-dimethoxybenzoic acid, reference compound]	no ability to induce apoptosis	no ability to induce apoptosis	no ability to induce apoptosis				toxicity / cell growth inhibition [2]: non-toxic; toxicity / cell growth inhibition [3]: non-toxic; toxicity / cell growth inhibition [5]: non-toxic; toxicity / cell growth inhibition [6]: non-toxic
47.5 ± 2.7	82 ± 10.5	111 ± 4.5	COc1ccc(C(=O)OC[C@H](COP(=O)([O-])OCC[N+](C)(C)C)OC(=O)c2ccc(OC)cc2)cc1 [3a, 1,2-dianisoyl-sn-glycero-3-phosphocholine]	significant potency to induce apoptosis	significant potency to induce apoptosis	significant potency to induce apoptosis	increased the fraction of melanoma cells in the sub-G1 phase	238 ± 17.8		fraction of necrotic cells (451-Lu cells [1]): significant increase in the fraction of necrotic cells; reactive oxygen species formation (antioxidant activity, words) (Me45 melanoma cells): strongest antioxidant; reactive oxygen species formation (antioxidant activity, words) (1205-Lu melanoma cells): strongest antioxidant; reactive oxygen species formation (antioxidant activity, words) (451-Lu melanoma cells): strongest antioxidant; fraction of cells in the early stage of apoptosis (1205-Lu cells [7]): ~ 17%; fraction of necrotic cells (1205-Lu cells [7]): significant increase in the fraction of necrotic cells
48.3 ± 5.5	153 ± 9.5	84.4 ± 14	COc1ccc(C(=O)OC[C@H](COP(=O)([O-])OCC[N+](C)(C)C)OC(=O)c2ccc(OC)c(OC)c2)cc1OC [3b, 1,2-diveratroyl-sn-glycero-3-phosphocholine]	significant potency to induce apoptosis	significant potency to induce apoptosis	significant potency to induce apoptosis	increased the fraction of melanoma cells in the sub-G1 phase	168 ± 11.3	increased the fraction of Me45 cells in the sub-G1 as well as G2/M phases	fraction of necrotic cells (451-Lu cells [1]): significant increase in the fraction of necrotic cells; reactive oxygen species formation (antioxidant activity, words) (Me45 melanoma cells): highest ability to reduce ROS formation; reactive oxygen species formation (antioxidant activity, words) (1205-Lu melanoma cells): highest ability to reduce ROS formation; reactive oxygen species formation (antioxidant activity, words) (451-Lu melanoma cells): highest ability to reduce ROS formation; overcoming of doxorubicin-resistance (colon cancer cells): partially overcome doxorubicin-resistance; fraction of cells in the early stage of apoptosis (1205-Lu cells [7]): ~ 22%; fraction of necrotic cells (1205-Lu cells [7]): significant increase in the fraction of necrotic cells
97.7 ± 8	71.3 ± 7.7	122 ± 10	CCCCCCCCCCCCCCCC(=O)OC[C@H](COP(=O)([O-])OCC[N+](C)(C)C)OC(=O)c1ccc(OC)cc1 [5a, 1-palmitoyl-2-anisoyl-sn-glycero-3-phosphocholine]	slightly increased	slightly increased			249 ± 20.9		
137 ± 7.7	102 ± 4.1	109 ± 7.6	CCCCCCCCCCCCCCCC(=O)OC[C@H](COP(=O)([O-])OCC[N+](C)(C)C)OC(=O)c1ccc(OC)c(OC)c1 [5b, 1-palmitoyl-2-veratroyl-sn-glycero-3-phosphocholine]		significantly higher fractions of Me45 cells in the early and late stages of apoptosis		increased the fraction of melanoma cells in the sub-G1 phase	185 ± 13.7	Increased fraction of Me45 cells in G2/M phase	
54.1 ± 6.7	62.2 ± 7.1	131 ± 9.9	CCCCCCCCCCCCCCCC(=O)O[C@H](COC(=O)c1ccc(OC)cc1)COP(=O)([O-])OCC[N+](C)(C)C [8a, 1-anisoyl-2-palmitoyl-sn-glycero-3-phosphocholine]					198 ± 20.8		pro-apoptotic effect in combination with ionizing radiation (1205-Lu cells [10]): most effective combinations
82.2 ± 14.3	73.2 ± 9.3	126 ± 3.7	CCCCCCCCCCCCCCCC(=O)O[C@H](COC(=O)c1ccc(OC)c(OC)c1)COP(=O)([O-])OCC[N+](C)(C)C [8b, 1-veratroyl-2-palmitoyl-sn-glycero-3-phosphocholine]					150 ± 17.9	Increased fraction of Me45 cells in G2/M phase	pro-apoptotic effect in combination with ionizing radiation (1205-Lu cells [10]): most effective combinations
